The values below come from ChEMBL document CHEMBL3526157, “Unique metabolic pathway of [(14)C]lenvatinib after oral administration to male cynomolgus monkey” (Drug Metab Dispos, 2012).

The subject of series [1] is Cynomolgus monkey. Briefly: Drug metabolism in cynomolgus monkey assessed as 2-(6-carbamoyl-7-methoxyquinolin-4-ylamino)-3-((2-(6-carbamoyl-7-methoxyquinolin-4-ylamino)-3-(carboxymethylamino)-3-oxopropyl)disulfanyl)propanoic acid formation at 30 mg/kg, po administered on day 1, 2 and 4 by radio-LC/MS analysis. To be noted: in vivo. More on the design: dose 30 mg/kg, route oral. The format is ADME, organism-based, Macaca fascicularis.

Series [2] in a line: Drug metabolism in cynomolgus monkey assessed as parent compound level in bile at 30 mg/kg, po administered on day 1, 2 and 4 by radio-LC/MS analysis. Set-up: dose 30 mg/kg, route oral. The format is ADME, organism-based, Macaca fascicularis. The following applies: in vivo.
Series [3] is described as follows: Drug metabolism in cynomolgus monkey assessed as 2-(6-carbamoyl-7-methoxyquinolin-4-ylamino)-3-((2-(6-carbamoyl-7-methoxyquinolin-4-ylamino)-3-(carboxymethylamino)-3-oxopropyl)disulfanyl)propanoic acid metabolite level in urine at 30 mg/kg, po administered on day 1, 2 and 4 by radio-LC/MS analysis. It is filed as ADME, organism-based, Macaca fascicularis. Set-up: dose 30 mg/kg, route oral. To be noted: in vivo.

Series [4] concerns Cynomolgus monkey. Briefly: Drug metabolism in cynomolgus monkey assessed as parent compound formation at 30 mg/kg, po administered on day 1, 2 and 4 by radio-LC/MS analysis. The format is ADME, organism-based, Macaca fascicularis. Set-up: dose 30 mg/kg, route oral. The following applies: in vivo.
A short description of series [5]: Drug metabolism in cynomolgus monkey assessed as 3,3'-disulfanediylbis(2-(6-carbamoyl-7-methoxyquinolin-4-ylamino)propanoic acid) metabolite level in bile at 30 mg/kg, po administered on day 1, 2 and 4 by radio-LC/MS analysis. The format is ADME, organism-based, Macaca fascicularis. More on the design: dose 30 mg/kg, route oral. The following applies: in vivo.
The nature of series [6]: Drug metabolism in cynomolgus monkey assessed as 3,3'-disulfanediylbis(2-(6-carbamoyl-7-methoxyquinolin-4-ylamino)propanoic acid) metabolite level in urine at 30 mg/kg, po administered on day 1, 2 and 4 by radio-LC/MS analysis. More on the design: dose 30 mg/kg, route oral. To be noted: in vivo. It is filed as ADME, organism-based, Macaca fascicularis.
In series [7] the test system is Cynomolgus monkey. Briefly: Drug metabolism in cynomolgus monkey assessed as 2-(6-carbamoyl-7-methoxyquinolin-4-ylamino)-3-(6-carbamoyl-7-methoxyquinolin-4-ylthio)propanoic acid formation at 30 mg/kg, po administered on day 1, 2 and 4 by radio-LC/MS analysis. The format is ADME, organism-based, Macaca fascicularis. Set-up: dose 30 mg/kg, route oral. The following applies: in vivo.

Series [8] has as its system Cynomolgus monkey. Briefly: Drug metabolism in cynomolgus monkey assessed as 2-(6-carbamoyl-7-methoxyquinolin-4-ylamino)-3-mercaptopropanoic acid formation at 30 mg/kg, po administered on day 1, 2 and 4 by radio-LC/MS analysis. The format is ADME, organism-based, Macaca fascicularis. Set-up: dose 30 mg/kg, route oral. The following applies: in vivo.
A short description of series [9]: Drug metabolism in cynomolgus monkey assessed as 2-(6-carbamoyl-7-methoxyquinolin-4-ylamino)-3-(6-carbamoyl-7-methoxyquinolin-4-ylthio)propanoic acid metabolite level in bile at 30 mg/kg, po administered on day 1, 2 and 4 by radio-LC/MS analysis. It is filed as ADME, organism-based, Macaca fascicularis. More on the design: dose 30 mg/kg, route oral. To be noted: in vivo.

The next series has as its system Plasma. Briefly: Drug metabolism in cynomolgus monkey assessed as parent compound level in plasma at 30 mg/kg, po administered on day 1, 2 and 4 by radio-LC/MS analysis. It is filed as ADME, organism-based, Macaca fascicularis. To be noted: in vivo. Set-up: dose 30 mg/kg, route oral.
The nature of series [10]: Drug excretion in cynomolgus monkey feces assessed as unchanged level of drug at 30 mg/kg, po administered on day 1, 2 and 4 by radio-LC/MS analysis. It is filed as ADME, organism-based, Macaca fascicularis. More on the design: dose 30 mg/kg, route oral. The following applies: read-out: Drug excretion.
The nature of series [11]: Drug metabolism in cynomolgus monkey assessed as 5-(3-(6-carbamoyl-7-methoxyquinolin-4-ylthio)-1-(carboxymethylamino)-1-oxopropan-2-ylamino)-[…]-5-oxopentanoic acid metabolite level in liver at 30 mg/kg, po administered on day 1, 2 and 4 by radio-LC/MS analysis. More on the design: dose 30 mg/kg, route oral. The format is ADME, organism-based, Macaca fascicularis. To be noted: in vivo.

Series [12] has as its system Cynomolgus monkey. Briefly: Drug metabolism in cynomolgus monkey assessed as 2-(6-carbamoyl-7-methoxyquinolin-4-ylthio)acetic acid formation at 30 mg/kg, po administered on day 1, 2 and 4 by radio-LC/MS analysis. The format is ADME, organism-based, Macaca fascicularis. More on the design: dose 30 mg/kg, route oral. To be noted: in vivo.
Series [13] is described as follows: Drug metabolism in cynomolgus monkey assessed as 2-(6-carbamoyl-7-methoxyquinolin-4-ylamino)-3-mercaptopropanoic acid metabolite level in liver at 30 mg/kg, po administered on day 1, 2 and 4 by radio-LC/MS analysis. The format is ADME, organism-based, Macaca fascicularis. The following applies: in vivo. More on the design: dose 30 mg/kg, route oral.
A short description of series [14]: Drug metabolism in cynomolgus monkey assessed as 2-(6-carbamoyl-7-methoxyquinolin-4-ylthio)acetic acid metabolite level in urine at 30 mg/kg, po administered on day 1, 2 and 4 by radio-LC/MS analysis. The format is ADME, organism-based, Macaca fascicularis. Set-up: dose 30 mg/kg, route oral. To be noted: in vivo.
The test system of series [15] is Cynomolgus monkey. Briefly: Drug metabolism in cynomolgus monkey assessed as 3,3'-disulfanediylbis(2-(6-carbamoyl-7-methoxyquinolin-4-ylamino)propanoic acid) formation at 30 mg/kg, po administered on day 1, 2 and 4 by radio-LC/MS analysis. The format is ADME, organism-based, Macaca fascicularis. Set-up: dose 30 mg/kg, route oral. To be noted: in vivo.
The test system of series [16] is Cynomolgus monkey. Briefly: Drug metabolism in cynomolgus monkey assessed as 5-(3-(6-carbamoyl-7-methoxyquinolin-4-ylthio)-1-(carboxymethylamino)-1-oxopropan-2-ylamino)-[…]-5-oxopentanoic acid formation at 30 mg/kg, po administered on day 1, 2 and 4 by radio-LC/MS analysis. It is filed as ADME, organism-based, Macaca fascicularis. Set-up: dose 30 mg/kg, route oral. The following applies: in vivo.

A short description of series [17]: Drug metabolism in cynomolgus monkey assessed as 2-(6-carbamoyl-7-methoxyquinolin-4-ylamino)-3-(6-carbamoyl-7-methoxyquinolin-4-ylthio)propanoic acid metabolite level in urine at 30 mg/kg, po administered on day 1, 2 and 4 by radio-LC/MS analysis. It is filed as ADME, organism-based, Macaca fascicularis. More on the design: dose 30 mg/kg, route oral. The following applies: in vivo.

Series [18] is described as follows: Drug metabolism in cynomolgus monkey assessed as 2-(6-carbamoyl-7-methoxyquinolin-4-ylamino)-3-mercaptopropanoic acid metabolite level in bile at 30 mg/kg, po administered on day 1, 2 and 4 by radio-LC/MS analysis. More on the design: dose 30 mg/kg, route oral. The format is ADME, organism-based, Macaca fascicularis. The following applies: in vivo.
A short description of series [19]: Drug metabolism in cynomolgus monkey assessed as 2-(6-carbamoyl-7-methoxyquinolin-4-ylamino)-3-(6-carbamoyl-7-methoxyquinolin-4-ylthio)propanoic acid metabolite level in liver at 30 mg/kg, po administered on day 1, 2 and 4 by radio-LC/MS analysis. It is filed as ADME, organism-based, Macaca fascicularis. Set-up: dose 30 mg/kg, route oral. The following applies: in vivo.

Series [20] in a line: Drug metabolism in cynomolgus monkey assessed as parent compound level in liver at 30 mg/kg, po administered on day 1, 2 and 4 by radio-LC/MS analysis. The following applies: in vivo. It is filed as ADME, organism-based, Macaca fascicularis. More on the design: dose 30 mg/kg, route oral.
Series [21] relates to Cynomolgus monkey. Description: Drug retention time in cynomolgus monkey treated with 30 mg/kg, po of [14C]lenvatinib administered on day 1, 2 and 4 by radio-LC/MS analysis. The format is ADME, organism-based, Macaca fascicularis. Set-up: dose 30 mg/kg, route oral. The following applies: in vivo.
In series [22] the test system is Cynomolgus monkey. Description: Drug metabolism in cynomolgus monkey treated with 30 mg/kg, po of [14C]lenvatinib administered on day 1, 2 and 4 by radio-LC/MS analysis. The format is ADME, organism-based, Macaca fascicularis. Set-up: dose 30 mg/kg, route oral. To be noted: in vivo.
A short description of series [23]: Drug metabolism in Sprague-Dawley rat liver S9 fraction treated with 50 uM of lenvatinib up to 60 mins by HPLC analysis in presence of GSH and NADPH. To be noted: s9, 1 h.
A short description of series [24]: Drug metabolism in Sprague-Dawley rat liver S9 fraction treated with 50 uM of lenvatinib up to 60 mins by HPLC analysis in presence of GSH and absence of NADPH. To be noted: s9, 1 h.
A short description of series [25]: Drug metabolism in human liver S9 fraction treated with 50 uM of lenvatinib up to 120 mins by HPLC analysis in presence of GSH and absence of NADPH. It is filed as ADME. To be noted: s9, 2 h.
Series [26] is described as follows: Drug metabolism in cynomolgus monkey liver S9 fraction treated with 50 uM of lenvatinib up to 120 mins by HPLC analysis in presence of GSH and NADPH. The format is ADME, subcellular, Macaca fascicularis. The following applies: s9, 2 h.
A short description of series [27]: Drug metabolism in human liver S9 fraction treated with 50 uM of lenvatinib up to 120 mins by HPLC analysis in presence of GSH and NADPH. It is filed as ADME, subcellular. To be noted: s9, 2 h.
Series [28] in a line: Drug metabolism in cynomolgus monkey liver S9 fraction treated with 50 uM of lenvatinib up to 120 mins by HPLC analysis in presence of GSH and absence of NADPH. The format is ADME, Macaca fascicularis. To be noted: s9, 2 h.

With `COc1cc2n[14cH]cc(Oc3ccc(NC(=O)NC4CC4)c(Cl)c3)c2cc1C(N)=O.CS(=O)(=O)O`, the Drug metabolism result (in the series on Cynomolgus monkey [1]; in series [2]; in series [3]; with Cynomolgus monkey [4]; in series [5]; in series [6]) was “metabolite_detected” throughout. In addition, the Drug metabolism entry (with Cynomolgus monkey [7]; in the series on Cynomolgus monkey [8]; in series [9]; in the series with Plasma; in series [11]; in the series with Cynomolgus monkey [12]) was “metabolite_detected” throughout. For the same compound, the Drug metabolism entry (in series [13]; in series [14]; with Cynomolgus monkey [15]; in the series with Cynomolgus monkey [16]; in series [17]; in [18]) was “metabolite_detected” in each case. Moreover, the Drug metabolism entry in series [19] and in [20] was “metabolite_detected” throughout. The dose excreted in series [10] is 51%.

In the series with Cynomolgus monkey [21], `COc1cc2nccc(N[C@@H](CSSC[C@H](Nc3ccnc4cc(OC)c(C(N)=O)cc34)C(=O)NCC(=O)O)C(=O)O)c2cc1C(N)=O` had a Retention_time of 14.1 min. Moreover, in the series with Cynomolgus monkey [22], the Drug metabolism entry was “metabolite_detected”.

`COc1cc2nccc(SCC(=O)O)c2cc1C(N)=O` registered a Retention_time with Cynomolgus monkey [21] of 12.2 min. Besides, the Drug metabolism result with Cynomolgus monkey [22] is reported as “metabolite_detected”.

For the compound `COc1cc2nccc(SC[C@H](NC(=O)CC[C@H](N)C(=O)O)C(=O)NCC(=O)O)c2cc1C(N)=O`, the Drug metabolism entry (in series [23]; in [24]; in [25]; in the series on Cynomolgus monkey [22]; in [26]; in series [27]) was “metabolite_detected” in each case. Moreover, in [28], the Drug metabolism entry is given as “metabolite_detected”. The compound further had a Retention_time in the series on Cynomolgus monkey [21] of 13.1 min.
